Molecular target: MAPK14 (UniProt Q16539)
Test: Inhibition of MAPK14 Kinase Activity

Sequence of MAPK14 (Q16539 whole entry, looked up): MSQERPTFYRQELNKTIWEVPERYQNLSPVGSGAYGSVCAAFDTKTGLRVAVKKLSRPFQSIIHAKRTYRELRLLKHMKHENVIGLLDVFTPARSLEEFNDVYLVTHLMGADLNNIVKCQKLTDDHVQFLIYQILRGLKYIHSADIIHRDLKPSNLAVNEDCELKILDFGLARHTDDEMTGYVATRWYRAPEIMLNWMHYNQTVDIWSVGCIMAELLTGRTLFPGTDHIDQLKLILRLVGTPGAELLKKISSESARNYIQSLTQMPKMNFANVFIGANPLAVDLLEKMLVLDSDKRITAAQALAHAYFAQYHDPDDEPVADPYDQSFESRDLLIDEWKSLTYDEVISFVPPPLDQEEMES

IC50 | SMILES
< 50 µM | COc1nccc(-c2c(-c3ccc(F)cc3)ncn2[C@@H](CO)Cc2ccccc2)n1
< 50 µM | CCCSc1nccc(-c2c(-c3ccc(F)cc3)ncn2[C@@H](C)CO)n1
< 50 µM | COc1nccc(-c2c(-c3ccc(F)cc3)ncn2[C@H](CO)Cc2ccccc2)n1
< 50 µM | CC[C@H](CO)n1cnc(-c2ccc(F)cc2)c1-c1ccnc(NC)n1
< 50 µM | COc1nccc(-c2c(-c3ccc(F)cc3)ncn2C(C)CN(C)C)n1 (stereo unspecified)
< 50 µM | CCCSc1nccc(-c2c(-c3ccc(F)cc3)ncn2[C@H](C)CO)n1
< 50 µM | COc1nccc(-c2c(-c3ccc(F)cc3)ncn2C(C)CO)n1 (stereo unspecified)
< 50 µM | CC[C@@H](CO)n1cnc(-c2ccc(F)cc2)c1-c1ccnc(OC)n1
< 50 µM | CCCSc1nccc(-c2c(-c3ccc(F)cc3)ncn2[C@H](CC)CO)n1
< 50 µM | CCCSc1nccc(-c2c(-c3ccc(F)cc3)ncn2[C@@H](CC)CO)n1
< 50 µM | COc1nccc(-c2c(-c3ccc(F)cc3)ncn2C(CO)CO)n1
< 50 µM | CC[C@H](CO)n1cnc(-c2ccc(F)cc2)c1-c1ccnc(OC)n1
< 50 µM | COc1nccc(-c2c(-c3ccc(F)cc3)ncn2[C@H](CO)c2ccccc2)n1
< 50 µM | CC[C@@H](CO)n1cnc(-c2ccc(F)cc2)c1-c1ccnc(NC)n1

Second part, the molecule before the results:

SMILES | IC50
CNc1nccc(-c2c(-c3ccc(F)cc3)ncn2[C@H](CO)c2ccccc2)n1 | < 50 µM
COc1nccc(-c2c(-c3ccc(F)cc3)ncn2C(C)COc2ccccc2)n1 (stereo unspecified) | < 50 µM
CCCSc1nccc(-c2c(-c3ccc(F)cc3)ncn2[C@@H](CO)c2ccccc2)n1 | < 50 µM
CCCSc1nccc(-c2c(-c3ccc(F)cc3)ncn2[C@H](CO)c2ccccc2)n1 | < 50 µM
C[C@@H](CO)n1cnc(-c2ccc(F)cc2)c1-c1ccncn1 | < 50 µM
COc1nccc(-c2c(-c3ccc(F)cc3)ncn2[C@@H](CO)c2ccccc2)n1 | < 50 µM
C[C@@H](CO)n1cnc(-c2ccc(F)cc2)c1-c1ccnc(Nc2ccccc2)n1 | < 50 µM
CNc1nccc(-c2c(-c3ccc(F)cc3)ncn2C(C)CO)n1 (stereo unspecified) | < 50 µM
CCCSc1nccc(-c2c(-c3ccc(F)cc3)ncn2C(CO)CO)n1 | < 50 µM
CCCSc1nccc(-c2c(-c3ccc(F)cc3)ncn2C(C)CN(C)C)n1 (stereo unspecified) | < 50 µM
CCCSc1nccc(-c2c(-c3ccc(F)cc3)ncn2C(C)CC(=O)OC)n1 (stereo unspecified) | < 50 µM
CNc1nccc(-c2c(-c3ccc(F)cc3)ncn2[C@@H](CO)c2ccccc2)n1 | < 50 µM

Source: the Kinase Knowledgebase extract (Sharma et al. 2016)
